Patent US9789181B2, “PAN-DR binding polypeptides and uses thereof” (Epimmune Inc., priority 2009, dated 2017)
Where no end group is shown, it is not given here.

Legend:
HLA DRB4 *0101 = HLA DRB4 *0101 (Homo sapiens, UniProt P01903+P13762, G164S); experiment: IC50nM to purified HLA | DRB4 *0101
Protocol: (§1) Table printed on a drawing sheet, FIG. 1 (contd.)
Head of the field: IC50nM to purified HLA | DRB4 *0101
(§2) First copying reader's note: Continued from the preceding sheet of FIG. 1; decimal commas are used, the analog names give the substituted residues and positions in PADRE, and some values are printed in italics or bold and some SEQ ID NOs bold and underlined without a legend on this sheet.
Where the first naming reader finds the target: head: IC50nM to purified HLA | DRB4 *0101

HLA DRB1 *0701 = HLA DRB1 *0701 (Homo sapiens, UniProt P01903+P01911, A100R/A102G/A103Q/D57E/D86V/E43K/F76Y/K127E/L162R/M171V/P40G/Q125H/Q99D/R33Q/R42Y/R54Q/S133A/S66F/T210M/V115G/Y107V/Y59L/Y89S); experiment: IC50nM to purified HLA | DRB1 *0701
Protocol: as §1
Head of the field: IC50nM to purified HLA | DRB1 *0701
as §2
Where the first naming reader finds the target: head: IC50nM to purified HLA | DRB1 *0701

HLA DRB1 *1101 = HLA DRB1 *1101 (Homo sapiens, UniProt P01903+P01911, A100R/A169T/A87E/I96F/K41T/L162R/M171V/P40S/Q125H/Q178H/Q39Y/Q99D/R42S/S66Y/T262R/V115G/W38E); experiment: IC50nM to purified HLA | DRB1 *1101
Chain of HLA DRB1 *1101 (P01903 26-254 limits assumed, other chains not shown): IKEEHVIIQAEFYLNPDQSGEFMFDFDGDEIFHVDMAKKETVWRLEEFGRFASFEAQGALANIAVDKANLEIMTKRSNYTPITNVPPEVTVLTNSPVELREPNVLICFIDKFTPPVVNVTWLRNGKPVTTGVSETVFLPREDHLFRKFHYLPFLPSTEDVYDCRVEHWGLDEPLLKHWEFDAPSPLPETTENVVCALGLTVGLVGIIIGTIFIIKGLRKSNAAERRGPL
Protocol: as §1
Head of the field: IC50nM to purified HLA | DRB1 *1101
as §2
Where the first naming reader finds the target: head: IC50nM to purified HLA | DRB1 *1101

HLA DRB1 *0401 = HLA DRB1 *0401 (Homo sapiens, UniProt P01903+P01911, A100K/A169T/F76Y/I96L/K127E/L162R/M171V/N62H/P40V/Q125Y/R42H/S133A/S149N/S66Y/V115G/V209L/W38E); experiment: IC50nM to purified HLA | DRB1 *0401
Protocol: as §1
Head of the field: IC50nM to purified HLA | DRB1 *0401
as §2
Where the first naming reader finds the target: head: IC50nM to purified HLA | DRB1 *0401

HLA DRB1 *0301 = HLA DRB1 *0301 (Homo sapiens, UniProt P01903+P01911, A100K/A102G/A103R/A169T/F55Y/I96L/K41T/L162R/M171V/P40S/Q125H/Q178H/Q39Y/R42S/S66N/T106N/T262R/W38E/Y61H); experiment: IC50nM to purified HLA | DRB1 *0301
Chain of HLA DRB1 *0301 (P01903 26-254 limits assumed, other chains not shown): as above
Protocol: as §1
Head of the field: IC50nM to purified HLA | DRB1 *0301
as §2
Where the first naming reader finds the target: head: IC50nM to purified HLA | DRB1 *0301

HLA DRB1 *0404 = HLA DRB1 *0404 (Homo sapiens, UniProt P01903+P01911, A100R/A169T/F76Y/I96L/K127E/L162R/M171V/N62H/P40V/Q125Y/R42H/S133A/S149N/S66Y/V209L/W38E); experiment: IC50nM to purified HLA | DRB1 *0404
Protocol: as §1
Head of the field: IC50nM to purified HLA | DRB1 *0404
as §2
Where the first naming reader finds the target: head: IC50nM to purified HLA | DRB1 *0404

HLA DRB1 *1501 = HLA DRB1 *1501 (Homo sapiens, UniProt P01903+P01911); experiment: IC50nM to purified HLA | DRB1 *1501
Protocol: as §1
Head of the field: IC50nM to purified HLA | DRB1 *1501
as §2
Where the first naming reader finds the target: head: IC50nM to purified HLA | DRB1 *1501

HLA DRB1 *0405 = HLA DRB1 *0405 (Homo sapiens, UniProt P01903+P01911, A100R/A169T/D86S/F76Y/I96L/K127E/L162R/M171V/N62H/P40V/Q125Y/R42H/S133A/S149N/S66Y/V115G/V209L/W38E); experiment: IC50nM to purified HLA | DRB1 *0405
Protocol: as §1
Head of the field: IC50nM to purified HLA | DRB1 *0405
as §2
Where the first naming reader finds the target: head: IC50nM to purified HLA | DRB1 *0405

HLA DRB1 *0101 = HLA DRB1 *0101 (Homo sapiens, UniProt P01903+P01911, A100R/D57E/F55L/F60I/F76Y/I96L/L162R/M171V/P40L/Q125E/R42F/V115G/Y59C); experiment: IC50nM to purified HLA | DRB1 *0101
Protocol: as §1
Head of the field: IC50nM to purified HLA | DRB1 *0101
as §2
Where the first naming reader finds the target: head: IC50nM to purified HLA | DRB1 *0101

HLA DRB1 *0901 = HLA DRB1 *0901 (Homo sapiens, UniProt P01903+P01911, A100R/A103E/D57H/D86V/F55Y/F60I/F76Y/I96F/K127E/L162R/M171V/P40D/Q125H/Q99R/R33Q/R42F/S133A/S66N/T210M/V115G/W38K/Y107V/Y59G/Y89S); experiment: IC50nM to purified HLA | DRB1 *0901
Protocol: as §1
Head of the field: IC50nM to purified HLA | DRB1 *0901
as §2
Where the first naming reader finds the target: head: IC50nM to purified HLA | DRB1 *0901

HLA DRB1 *0802 = HLA DRB1 *0802 (Homo sapiens, UniProt P01903+P01911, A100R/A103L/A169T/F76Y/H45Y/I96F/K41T/L162R/M171V/P40S/Q125H/Q178H/Q39Y/Q99D/R218S/R42G/S66Y/V115G/W38E); experiment: IC50nM to purified HLA | DRB1 *0802
Protocol: as §1
Head of the field: IC50nM to purified HLA | DRB1 *0802
as §2
Where the first naming reader finds the target: head: IC50nM to purified HLA | DRB1 *0802

HLA DRB1 *1302 = HLA DRB1 *1302 (Homo sapiens, UniProt P01903+P01911, A100E/A169T/K41T/L162R/M171V/P40S/Q125H/Q178H/Q39Y/Q99D/R42S/S66N/T262R/V115G/W38E/Y61H); experiment: IC50nM to purified HLA | DRB1 *1302
Chain of HLA DRB1 *1302 (P01903 26-254 limits assumed, other chains not shown): as above
Protocol: as §1
Head of the field: IC50nM to purified HLA | DRB1 *1302
as §2
Where the first naming reader finds the target: head: IC50nM to purified HLA | DRB1 *1302

HLA DRB5 *0101 = HLA DRB5 *0101 (Homo sapiens, UniProt P01903+Q30154); experiment: IC50nM to purified HLA | DRB5 *0101
Protocol: as §1
Head of the field: IC50nM to purified HLA | DRB5 *0101
as §2
Where the first naming reader finds the target: head: IC50nM to purified HLA | DRB5 *0101

Chain of HLA DRB4 *0101 (P01903 26-254 limits assumed): as the sequence (P01903 26-254 limits assumed, other chains not shown) above
Chain of HLA DRB4 *0101 (P13762 whole entry G164S): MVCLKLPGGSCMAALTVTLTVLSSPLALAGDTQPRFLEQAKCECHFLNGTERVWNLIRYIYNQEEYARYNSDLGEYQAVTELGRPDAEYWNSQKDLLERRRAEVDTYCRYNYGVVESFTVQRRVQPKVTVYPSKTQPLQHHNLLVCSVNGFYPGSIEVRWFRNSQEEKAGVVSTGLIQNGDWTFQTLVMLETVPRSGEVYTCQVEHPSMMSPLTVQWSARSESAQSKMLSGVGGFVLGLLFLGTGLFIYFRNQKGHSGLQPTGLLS

IC50 (HLA DRB4 *0101) [nM]	IC50 (HLA DRB1 *0701) [nM]	IC50 (HLA DRB1 *1101) [nM]	IC50 (HLA DRB1 *0401) [nM]	IC50 (HLA DRB1 *0301) [nM]	IC50 (HLA DRB1 *0404) [nM]	IC50 (HLA DRB1 *1501) [nM]	IC50 (HLA DRB1 *0405) [nM]	IC50 (HLA DRB1 *0101) [nM]	IC50 (HLA DRB1 *0901) [nM]	IC50 (HLA DRB1 *0802) [nM]	IC50 (HLA DRB1 *1302) [nM]	IC50 (HLA DRB5 *0101) [nM]	Sequence
1050	223	44	4.7	746	3.7	97	11	7.3					AAADFVAAFTLHAAA [SEQ ID NO: 43]
	196		6.6	731	8.6	580		7.8	82	44	187	80	AAADFVAANTLHAAA [SEQ ID NO: 44]
	152	28	5.3	249	7.1	89	27	4.9	40	24			AAADFVAAWTLHAAA [SEQ ID NO: 41]
1540	195	19	5.1	330	4	64	30	7		17	4000		AAADFVAAWTLKAAA [SEQ ID NO: 40]
	182	40	4.5	286	5.3	19	21	4.8	32	14			AAADFVAAYTLHAAA [SEQ ID NO: 42]
132	140	48	2.1		2.6	50	14	6.1	18	19	2020		AAAEFVAAFTLHAAA [SEQ ID NO: 48]
	97	38	3.1	134	4.1		27		44	24	1150	48	AAAEFVAAWTLHAAA [SEQ ID NO: 46]
332		45	3.8	169	2.8	56	9.8	2.5	41	16	840	6.7	AAAEFVAAWTLKAAA [SEQ ID NO: 45]
448	161	27	2.3	144	3.2	6.9	17	3.9	28	13	1450	52	AAAEFVAAYTLHAAA [SEQ ID NO: 47]
948	83	76	15		9.5	37	19	6.7	30		594		AAAHFVAAFTLKADA [SEQ ID NO: 33]
	88	91	21	3120	13	172	36		60	67		18	AAAHFVAANTLKADA [SEQ ID NO: 34]
941	83		12		14		36	7.1		64	234		AAAHFVAANTLKAEA [SEQ ID NO: 39]
2100			8.5		7.1		16	5.1		24	875	23	AAAHFVAAWTLKADA [SEQ ID NO: 31]
677		53	6.4			20		5.1	44	22	1100	18	AAAHFVAAWTLKAEA [SEQ ID NO: 36]
	48		11		9.6	11		5.4	31			17	AAAHFVAAYTLKADA [SEQ ID NO: 32]
721		44	7.5		5.3	10	11	6.9	35		1010	16	AAAHFVAAYTLKAEA [SEQ ID NO: 37]
			7.3	1160	9.7	19	17	5	27		807	19	AAAKFVAAWTLKADA [SEQ ID NO: 30]
710		36	6.5			23	8.4		41	21		17	AAAKFVAAWTLKAEA [SEQ ID NO: 35]
	67	16		171		4.2	19	2.7			1420		AAANFVAAYTLHAAA [SEQ ID NO: 52]
